Test results: PMC5979531, “Structural Requirements of Alkylglyceryl-L-Ascorbic Acid Derivatives for Melanogenesis Inhibitory Activity” (International Journal of Molecular Sciences, 2018)

Legend:
[1] = system: B16 melanoma 4A5 cells; test: Theophylline-stimulated melanogenesis inhibition (melanin content); assay type: cell-based, murine; conditions: 72 h; for inhibition at 100 µM / inhibition at 300 µM / inhibition at 1000 µM / inhibition at 3000 µM / IC50 / inhibition at 3 µM / inhibition at 10 µM / inhibition at 30 µM: Mus musculus; for inhibition at 100 µM / inhibition at 300 µM / inhibition at 1000 µM / inhibition at 3000 µM / Inhibition (%) of melanogenesis / inhibition at 3 µM / inhibition at 10 µM / inhibition at 30 µM: theophylline-stimulated B16 4A5 cells; for IC50: theophylline (1 mM)-stimulated B16 melanoma 4A5 cells; for inhibition at 3000 µM / Inhibition (%) of melanogenesis: 3000 µM
Description: (§1) The effects on theophylline-stimulated melanogenesis and viability of B16 melanoma 4A5 cells were examined according to previously described protocols. Briefly, murine B16 melanoma 4A5 cells were seeded into 48-well plates in DMEM. After 24 h of culture, a test compound and theophylline (1 mM) were added and incubated for 72 h. The melanin content and cell viability were then measured. IC50 values were determined graphically.
Inhibition (%) was calculated using the following formula, where A and B indicate the optical density of the vehicle- and test compound-treated groups, respectively, and C indicates cell viability (%) (see below): Inhibition (%) = [(A − B)/A]/(C/100) × 100.

[2] = Cell viability of B16 melanoma 4A5 cells; assay type: cell-based, murine; conditions: mouse, B16 4A5 cells
Description: as §1

[3] = system: tyrosinase from mushroom; test: Mushroom tyrosinase activity; assay type: biochemical
Description: Tyrosinase activities using L-tyrosine or L-DOPA as a substrate were determined according to the protocols described previously. Briefly, samples, L-tyrosine (2.5 mM, or L-DOPA, 3.0 mM), mushroom tyrosinase (46 units/mL), and phosphate buffer were mixed in a 96-well plate and incubated at 25 °C. (L-tyrosine; 30 min, L-DOPA; 5 min). The absorbance was then measured at 492 nm.

Compound | IC50 [1] [µM] | inhibition at 100 µM [1] [%] | inhibition at 300 µM [1] [%] | inhibition at 1000 µM [1] [%] | inhibition at 3000 µM [1] [%] | viability at 72 h, 100 µM [2] [%] | viability at 72 h, 300 µM [2] [%] | viability at 72 h, 1000 µM [2] [%] | viability at 72 h, 3000 µM [2] [%] | further results
CCCCOC1=C(OCC(O)CO)[C@@H]([C@@H](O)CO)OC1=O (stereo partly shown) [compound 4, 2-O-butyl-3-O-(2,3-dihydroxypropyl)-AsA] | 2220 | -1.2 ± 0.8 | 20.8 ± 10.6 | 30.2 ± 5.1 | 58.9 ± 2.7 | 94.5 | 97.4 | 93.9 | 88.7 | 
CCCCCOC1=C(OCC(O)CO)C(=O)O[C@@H]1[C@@H](O)CO (stereo partly shown) [compound 19, 2-O-(2,3-dihydroxypropyl)-3-O-pentyl-AsA] | 283 | 14 ± 4.4 | 53 ± 1.1 | 83.1 ± 1.4 | 97.1 ± 0.9 | 86.7 | 73.4 | 54.7 | 22.5 | 
CCCCCCCCCCCCOC1=C(OCC(O)CO)[C@@H]([C@@H](O)CO)OC1=O (stereo partly shown) [compound 12, 3-O-(2,3-dihydroxypropyl)-2-O-dodecyl-AsA] | 10.6 | 97.9 ± 4.2 |  |  |  | 24.6 |  |  |  | Inhibition (%) of mushroom tyrosinase ([3]; Substrate: L-DOPA, 10 µM): −3.1 ± 3.3%; Inhibition (%) of mushroom tyrosinase ([3]; Substrate: L-DOPA, 30 µM): −4.6 ± 2.2%; Inhibition (%) of mushroom tyrosinase ([3]; Substrate: L-Tyrosine, 10 µM): −0.7 ± 4.5%; Inhibition (%) of mushroom tyrosinase ([3]; Substrate: L-Tyrosine, 30 µM): −7.1 ± 1.4%; inhibition at 3 µM [1]: 20.4 ± 10.2%; inhibition at 10 µM [1]: 50 ± 5.7%; inhibition at 30 µM [1]: 96 ± 2.9%; viability at 72 h, 3 µM [2]: 112%; viability at 72 h, 10 µM [2]: 104%; viability at 72 h, 30 µM [2]: 73.3%
O=C1O[C@H]([C@H](O)CO)C(O)=C1O [Erythrobic acid, reference compound] |  | -22.9 ± 6.5 | -10.6 ± 4.8 | 75.8 ± 4.2 | 92.6 ± 15.3 | 98.7 | 94.8 | 44.5 | 29.8 | 
Oc1ccc(O)cc1 [Hydroquinone, reference compound] | 8.7 |  |  |  |  |  |  |  |  | inhibition at 3 µM [1]: 37.4 ± 3.7%; inhibition at 10 µM [1]: 59.5 ± 3.7%; inhibition at 30 µM [1]: 76.3 ± 2.1%; viability at 72 h, 3 µM [2]: 94.1%; viability at 72 h, 10 µM [2]: 85.2%; viability at 72 h, 30 µM [2]: 64.3%
CCCCCCCCCOC1=C(OCC(O)CO)C(=O)O[C@@H]1[C@@H](O)CO (stereo partly shown) [compound 23, 2-O-(2,3-dihydroxypropyl)-3-O-nonyl-AsA] | 72.9 | 77.1 ± 2.4 |  |  |  | 60.7 |  |  |  | Inhibition (%) of mushroom tyrosinase ([3]; Substrate: L-DOPA, 30 µM): −4.1 ± 2.2%; Inhibition (%) of mushroom tyrosinase ([3]; Substrate: L-DOPA, 100 µM): −1.5 ± 2.2%; Inhibition (%) of mushroom tyrosinase ([3]; Substrate: L-Tyrosine, 30 µM): −5.0 ± 3.1%; Inhibition (%) of mushroom tyrosinase ([3]; Substrate: L-Tyrosine, 100 µM): −2.6 ± 2.4%; inhibition at 3 µM [1]: -1.3 ± 9.4%; inhibition at 10 µM [1]: -2.6 ± 8%; inhibition at 30 µM [1]: 14.9 ± 5.6%; viability at 72 h, 3 µM [2]: 96.6%; viability at 72 h, 10 µM [2]: 90.6%; viability at 72 h, 30 µM [2]: 81.2%
CCCCCCCCCCCOC1=C(OCC(O)CO)C(=O)O[C@@H]1[C@@H](O)CO (stereo partly shown) [compound 25, 2-O-(2,3-dihydroxypropyl)-3-O-undecyl-AsA] | 18.1 | 101 ± 10.1 |  |  |  | 24 |  |  |  | Inhibition (%) of mushroom tyrosinase ([3]; Substrate: L-DOPA, 10 µM): −10.2 ± 2.3%; Inhibition (%) of mushroom tyrosinase ([3]; Substrate: L-DOPA, 30 µM): −10.7 ± 3.8%; Inhibition (%) of mushroom tyrosinase ([3]; Substrate: L-Tyrosine, 10 µM): −8.0 ± 0.6%; Inhibition (%) of mushroom tyrosinase ([3]; Substrate: L-Tyrosine, 30 µM): −8.7 ± 1.5%; inhibition at 3 µM [1]: -5.1 ± 2.3%; inhibition at 10 µM [1]: 26.6 ± 3%; inhibition at 30 µM [1]: 85 ± 3.8%; viability at 72 h, 3 µM [2]: 101%; viability at 72 h, 10 µM [2]: 85.8%; viability at 72 h, 30 µM [2]: 53.6%
CCCOC1=C(OCC(O)CO)[C@@H]([C@@H](O)CO)OC1=O (stereo partly shown) [compound 3, 3-O-(2,3-dihydroxypropyl)-2-O-propyl-AsA] | > 3000 | -2.1 ± 5.3 | 8.2 ± 3.2 | 2.5 ± 7.9 | 35.9 ± 3.4 | 102 | 98.2 | 94.5 | 95 | 
CCCCCCCCOC1=C(OCC(O)CO)[C@@H]([C@@H](O)CO)OC1=O (stereo partly shown) [compound 8, 3-O-(2,3-dihydroxypropyl)-2-O-octyl-AsA] | 68.8 | 64.1 ± 8.2 |  |  |  | 80 |  |  |  | Inhibition (%) of mushroom tyrosinase ([3]; Substrate: L-DOPA, 30 µM): 2.4 ± 1.1%; Inhibition (%) of mushroom tyrosinase ([3]; Substrate: L-DOPA, 100 µM): 2.3 ± 2.7%; Inhibition (%) of mushroom tyrosinase ([3]; Substrate: L-Tyrosine, 30 µM): −0.3 ± 2.3%; Inhibition (%) of mushroom tyrosinase ([3]; Substrate: L-Tyrosine, 100 µM): −0.6 ± 4.3%; inhibition at 3 µM [1]: 5.7 ± 6.9%; inhibition at 10 µM [1]: 10.6 ± 4.6%; inhibition at 30 µM [1]: 22.4 ± 4.4%; viability at 72 h, 3 µM [2]: 108%; viability at 72 h, 10 µM [2]: 103%; viability at 72 h, 30 µM [2]: 92.5%
CCOC1=C(OCC(O)CO)C(=O)O[C@@H]1[C@@H](O)CO (stereo partly shown) [compound 16, 2-O-(2,3-dihydroxypropyl)-3-O-ethyl-AsA] | > 3000 | -4.2 ± 2.3 | -5.4 ± 1.5 | 12.1 ± 2.2 | 42 ± 1.4 | 105 | 95.9 | 95.9 | 84 | 
CCCCCOC1=C(OCC(O)CO)[C@@H]([C@@H](O)CO)OC1=O (stereo partly shown) [compound 5, 3-O-(2,3-dihydroxypropyl)-2-O-pentyl-AsA] | 931 | -14 ± 9.7 | 29.8 ± 8.1 | 45.9 ± 1.2 | 81.9 ± 3.3 | 118 | 107 | 105 | 78.7 | 
CCCCOC1=C(OCC(O)CO)C(=O)O[C@@H]1[C@@H](O)CO (stereo partly shown) [compound 18, 3-O-butyl-2-O-(2,3-dihydroxypropyl)-AsA] | 473 | 0.2 ± 4.4 | 36.3 ± 2.8 | 68 ± 2.1 | 84.1 ± 1.4 | 99.8 | 89.1 | 78.1 | 70.6 | 

More lines, main results first:

IC50 [1] [µM] | Compound | inhibition at 100 µM [1] [%] | inhibition at 300 µM [1] [%] | inhibition at 1000 µM [1] [%] | inhibition at 3000 µM [1] [%] | viability at 72 h, 100 µM [2] [%] | viability at 72 h, 300 µM [2] [%] | viability at 72 h, 1000 µM [2] [%] | viability at 72 h, 3000 µM [2] [%] | further results
830 | OC[C@H]1O[C@@H](Oc2ccc(O)cc2)[C@H](O)[C@@H](O)[C@@H]1O [Arbutin, reference compound] | 32.2 ± 3.4 | 22.3 ± 4.3 | 63 ± 2.3 | 94 ± 2.8 | 92.2 | 96 | 96.2 | 106 | 
> 3000 | O=C1O[C@H]([C@@H](O)CO)C(O)=C1OP(=O)(O)O [Magnesium L-ascorbyl-2-phosphate, reference compound] |  |  | 2.1 ± 4.1 | 14.5 ± 1.3 |  |  | 126 | 92.8 | Inhibition (%) of melanogenesis [1]: significantly inhibit melanogenesis
> 3000 | O=C1O[C@H]([C@@H](O)CO)C(O)=C1OCC(O)CO (stereo partly shown) [compound 15, 2-O-(2,3-dihydroxypropyl)-AsA] | -9.7 ± 1.2 | -4.8 ± 1 | -2.3 ± 1.7 | -6.1 ± 2.7 | 101 | 102 | 102 | 107 | 
> 3000 | CCCOC1=C(OCC(O)CO)C(=O)O[C@@H]1[C@@H](O)CO (stereo partly shown) [compound 17, 2-O-(2,3-dihydroxypropyl)-3-O-propyl-AsA] | -5.9 ± 3.3 | -3.9 ± 4.1 | 1.3 ± 4.2 | 23.2 ± 5.6 | 98.4 | 95.6 | 92 | 82.9 | 
> 3000 | O=C1O[C@H]([C@@H](O)CO)C(O)=C1O[C@H]1O[C@H](CO)[C@@H](O)[C@H](O)[C@H]1O [2-O-α-D-Glucopyranosyl-AsA, reference compound] |  |  | -8.9 ± 2.7 | 15 ± 3.5 |  |  | 107 | 108 | Inhibition (%) of melanogenesis [1]: significantly inhibit melanogenesis
> 3000 | O=C1O[C@H]([C@@H](O)CO)C(OCC(O)CO)=C1O (stereo partly shown) [compound 1, 3-O-(2,3-dihydroxypropyl)-AsA] | -11.8 ± 1.9 | -10.7 ± 1.1 | -5 ± 2.9 | 0.5 ± 2.5 | 100 | 96.8 | 100 | 108 | 
> 3000 | CCOC1=C(OCC(O)CO)[C@@H]([C@@H](O)CO)OC1=O (stereo partly shown) [compound 2, 3-O-(2,3-dihydroxypropyl)-2-O-ethyl-AsA] | -28.1 ± 3.2 | -2.8 ± 3.6 | -8.9 ± 2 | 40.4 ± 8.6 | 101 | 99.7 | 101 | 104 | 
